Assay results: ChEMBL document CHEMBL5506042, “Discovery of the Clinical Candidate IDOR-1117-2520: A Potent and Selective Antagonist of CCR6 for Autoimmune Diseases” (J Med Chem, 2024); call rule not given here
In brackets after ≈: the same amount, converted by molar mass.

Experiments:
Cytochrome P450 3A4 [1] = biological target: T1, Cytochrome P450 3A4 (Homo sapiens, UniProt P08684); experiment: Induction of CYP3A4 (unknown origin); assay type: ADME
[2] = Apparent permeability across apical to basolateral side in dog MDCK-II cells; assay type: ADME, cell-based, Canis lupus familiaris
[3] = Intrinsic clearance in human liver microsomes at 1 uM measured for 15 mins in presence of NADPH regenerating system measured per mg protein by LC-MS/MS analysis; assay type: ADME, Microsome; conditions: read-out: CLH
[4] = Cmax in Beagle dog at 3 mg/kg, po; assay type: ADME, organism-based, Canis lupus familiaris; conditions: in vivo
[5] = Half life in Wistar rat at 3 mg/kg, iv; assay type: ADME, organism-based; conditions: in vivo
[6] = Half life in Beagle dog at 1 mg/kg, iv; assay type: ADME, organism-based, Canis lupus familiaris; conditions: in vivo
[7] = Tmax in Beagle dog at 3 mg/kg, po; assay type: ADME, organism-based, Canis lupus familiaris; conditions: in vivo
[8] = Clearance in Wistar rat at 3 mg/kg, iv; assay type: ADME, organism-based; conditions: in vivo
[9] = Intrinsic solubility of the compound at pH >11.5 using amorphous form of sample; assay type: physicochemical; conditions: read-out: Intrinsic_solubility
Cytochrome P450 2C9 = Cytochrome P450 2C9 (Homo sapiens, UniProt P11712); experiment: Inhibition of CYP2C9 (unknown origin); assay type: ADME
Sequence of Cytochrome P450 2C9 (P11712 whole entry): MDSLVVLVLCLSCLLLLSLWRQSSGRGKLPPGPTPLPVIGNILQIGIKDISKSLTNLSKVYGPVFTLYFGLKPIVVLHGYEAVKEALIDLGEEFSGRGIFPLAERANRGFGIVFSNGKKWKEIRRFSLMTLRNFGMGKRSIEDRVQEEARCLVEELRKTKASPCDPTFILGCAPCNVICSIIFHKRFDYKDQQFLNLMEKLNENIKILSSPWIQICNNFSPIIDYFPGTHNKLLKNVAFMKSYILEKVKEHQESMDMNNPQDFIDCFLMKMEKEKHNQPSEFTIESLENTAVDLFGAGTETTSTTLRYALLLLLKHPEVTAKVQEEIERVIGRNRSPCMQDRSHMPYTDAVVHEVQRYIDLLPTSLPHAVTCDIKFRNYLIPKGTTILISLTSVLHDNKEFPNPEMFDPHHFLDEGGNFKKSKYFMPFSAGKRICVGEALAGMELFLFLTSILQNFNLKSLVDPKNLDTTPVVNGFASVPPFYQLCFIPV

[10] = Tmax in Wistar rat at 100 mg/kg, po; assay type: ADME, organism-based; conditions: in vivo
[11] = Fraction unbound in human plasma at 1 uM by rapid equilibrium dialysis based LC-MS/MS analysis; assay type: ADME, cell-free
[12] = Fraction unbound in dog plasma at 1 uM by rapid equilibrium dialysis based LC-MS/MS analysis; assay type: ADME, cell-free, Canis lupus familiaris
[13] = Volume of distribution at steady state in Beagle dog at 1 mg/kg, iv; assay type: ADME, organism-based, Canis lupus familiaris; conditions: in vivo, read-out: Vdss
[14] = Cmax in Wistar rat at 100 mg/kg, po; assay type: ADME, organism-based; conditions: in vivo
[15] = Oral bioavailability in Wistar rat at 100 mg/kg; assay type: ADME, organism-based; conditions: in vivo
[16] = Tmax in Beagle dog at 1 mg/kg, iv; assay type: ADME, organism-based, Canis lupus familiaris; conditions: in vivo
[17] = Cmax in Beagle dog at 1 mg/kg, iv; assay type: ADME, organism-based, Canis lupus familiaris; conditions: in vivo
[18] = Solubility of the compound in aqueous medium at pH <[…]; assay type: physicochemical
[19] = biological target: ATP-dependent translocase ABCB1 (Homo sapiens, UniProt P08183); experiment: Inhibition of human MDR1
Sequence of ATP-dependent translocase ABCB1 (P08183 whole entry): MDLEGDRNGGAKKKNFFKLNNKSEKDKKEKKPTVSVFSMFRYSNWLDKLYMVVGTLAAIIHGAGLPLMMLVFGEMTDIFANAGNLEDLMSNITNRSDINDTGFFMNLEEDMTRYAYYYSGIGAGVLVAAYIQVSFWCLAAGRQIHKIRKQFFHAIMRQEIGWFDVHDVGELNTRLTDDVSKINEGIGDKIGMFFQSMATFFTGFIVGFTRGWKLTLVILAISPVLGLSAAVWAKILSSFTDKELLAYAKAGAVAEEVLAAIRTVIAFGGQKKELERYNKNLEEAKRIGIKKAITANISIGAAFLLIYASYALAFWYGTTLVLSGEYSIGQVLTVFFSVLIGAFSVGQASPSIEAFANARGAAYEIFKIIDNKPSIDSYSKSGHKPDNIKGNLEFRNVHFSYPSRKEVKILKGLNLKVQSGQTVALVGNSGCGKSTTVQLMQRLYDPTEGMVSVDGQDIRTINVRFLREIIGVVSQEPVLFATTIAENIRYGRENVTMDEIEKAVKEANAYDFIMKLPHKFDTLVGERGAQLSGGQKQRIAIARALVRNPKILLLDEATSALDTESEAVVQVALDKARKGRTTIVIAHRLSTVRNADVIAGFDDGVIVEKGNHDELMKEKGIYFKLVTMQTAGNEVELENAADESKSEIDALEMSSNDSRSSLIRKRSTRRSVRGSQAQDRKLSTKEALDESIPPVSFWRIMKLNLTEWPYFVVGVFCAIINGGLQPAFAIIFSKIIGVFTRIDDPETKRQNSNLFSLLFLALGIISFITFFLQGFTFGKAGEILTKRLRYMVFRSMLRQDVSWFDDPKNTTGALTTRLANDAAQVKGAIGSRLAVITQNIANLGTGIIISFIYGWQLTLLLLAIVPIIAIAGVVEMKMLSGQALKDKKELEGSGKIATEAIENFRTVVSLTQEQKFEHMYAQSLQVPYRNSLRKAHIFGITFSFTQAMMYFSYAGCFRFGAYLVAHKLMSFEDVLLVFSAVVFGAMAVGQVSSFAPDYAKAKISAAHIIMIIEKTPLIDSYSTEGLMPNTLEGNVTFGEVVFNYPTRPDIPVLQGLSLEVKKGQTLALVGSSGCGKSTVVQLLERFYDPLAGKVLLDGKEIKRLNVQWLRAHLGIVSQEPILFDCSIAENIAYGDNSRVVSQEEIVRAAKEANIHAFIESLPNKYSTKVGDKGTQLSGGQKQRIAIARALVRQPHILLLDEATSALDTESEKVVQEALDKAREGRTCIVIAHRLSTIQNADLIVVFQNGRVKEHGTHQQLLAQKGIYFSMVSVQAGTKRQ

[20] = Volume of distribution at steady state in Wistar rat at 3 mg/kg, iv; assay type: ADME, organism-based; conditions: in vivo, read-out: Vdss
[21] = Oral bioavailability in Beagle dog at 3 mg/kg; assay type: ADME, organism-based, Canis lupus familiaris; conditions: in vivo
[22] = Clearance in Beagle dog at 1 mg/kg, iv; assay type: ADME, organism-based, Canis lupus familiaris; conditions: in vivo
[23] = AUC in Wistar rat at 3 mg/kg, iv; assay type: ADME, organism-based; conditions: in vivo
Cytochrome P450 3A4 [24] = biological target: T1, Cytochrome P450 3A4; experiment: Time dependent inhibition of CYP3A4 (unknown origin); assay type: ADME
[25] = AUC in Beagle dog at 3 mg/kg, po; assay type: ADME, organism-based, Canis lupus familiaris; conditions: in vivo
Cytochrome P450 3A4 [26] = biological target: T1, Cytochrome P450 3A4; experiment: Inhibition of CYP3A4 (unknown origin); assay type: ADME
[27] = Intrinsic clearance in human hepatocytes measured per million cells; assay type: ADME, cell-based, Hepatocyte; conditions: read-out: CLH
[28] = Intrinsic clearance in human hepatocytes in presence of ABT measured per million cells; assay type: ADME, cell-based, Hepatocyte; conditions: with ABT, read-out: CLH
[29] = Solubility of the compound at pH <[…] at 37 degC; assay type: physicochemical
[30] = AUC in Wistar rat at 100 mg/kg, po; assay type: ADME, organism-based; conditions: in vivo
[31] = Oral bioavailability in Beagle dog at 10 mg/kg; assay type: ADME, organism-based, Canis lupus familiaris; conditions: in vivo
[32] = Intrinsic clearance in dog liver microsomes at 1 uM measured for 15 mins in presence of NADPH regenerating system by LC-MS/MS analysis; assay type: ADME, Canis lupus familiaris, Microsome; conditions: read-out: CLH
Cytochrome P450 2D6 = Cytochrome P450 2D6 (Homo sapiens, UniProt P10635); experiment: Inhibition of CYP2D6 (unknown origin); assay type: ADME
Sequence of Cytochrome P450 2D6 (P10635 whole entry): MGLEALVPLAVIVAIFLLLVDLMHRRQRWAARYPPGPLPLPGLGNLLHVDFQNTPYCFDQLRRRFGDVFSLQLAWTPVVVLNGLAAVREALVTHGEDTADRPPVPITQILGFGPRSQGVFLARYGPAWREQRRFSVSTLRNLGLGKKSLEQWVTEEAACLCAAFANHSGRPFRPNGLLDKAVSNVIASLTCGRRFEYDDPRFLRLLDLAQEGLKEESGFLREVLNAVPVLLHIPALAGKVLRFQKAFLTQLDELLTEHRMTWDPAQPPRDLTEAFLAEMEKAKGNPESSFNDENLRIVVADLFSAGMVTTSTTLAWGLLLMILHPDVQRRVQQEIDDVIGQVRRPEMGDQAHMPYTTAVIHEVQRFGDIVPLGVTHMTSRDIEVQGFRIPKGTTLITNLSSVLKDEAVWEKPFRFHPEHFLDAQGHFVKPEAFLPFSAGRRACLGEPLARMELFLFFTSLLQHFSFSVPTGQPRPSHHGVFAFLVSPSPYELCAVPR

[33] = biological target: T2, Solute carrier organic anion transporter family member 1B3 (Homo sapiens, UniProt Q9NPD5); experiment: Inhibition of OATP1B3 (unknown origin)
T2 sequence (Q9NPD5 whole entry): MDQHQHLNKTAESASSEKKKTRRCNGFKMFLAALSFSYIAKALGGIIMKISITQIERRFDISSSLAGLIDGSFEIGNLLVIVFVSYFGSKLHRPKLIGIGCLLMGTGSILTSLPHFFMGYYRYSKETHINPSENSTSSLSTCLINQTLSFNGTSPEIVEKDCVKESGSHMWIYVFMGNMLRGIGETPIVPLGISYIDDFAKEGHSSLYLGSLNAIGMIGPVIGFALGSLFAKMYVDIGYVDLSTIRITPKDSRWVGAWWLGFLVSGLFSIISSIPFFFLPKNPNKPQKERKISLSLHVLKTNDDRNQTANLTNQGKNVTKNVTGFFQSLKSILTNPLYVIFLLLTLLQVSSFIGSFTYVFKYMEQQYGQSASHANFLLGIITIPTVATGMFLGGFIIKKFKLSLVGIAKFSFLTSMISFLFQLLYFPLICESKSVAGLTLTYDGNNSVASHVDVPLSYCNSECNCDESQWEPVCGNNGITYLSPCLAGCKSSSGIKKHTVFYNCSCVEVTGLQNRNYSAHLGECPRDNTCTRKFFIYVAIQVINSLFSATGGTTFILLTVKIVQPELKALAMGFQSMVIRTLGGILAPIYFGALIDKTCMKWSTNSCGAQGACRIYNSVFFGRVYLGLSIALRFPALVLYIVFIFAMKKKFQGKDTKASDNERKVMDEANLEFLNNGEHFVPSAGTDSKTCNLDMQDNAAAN

[34] = AUC in Beagle dog at 10 mg/kg, po; assay type: ADME, organism-based, Canis lupus familiaris; conditions: in vivo
[35] = biological target: T3, Solute carrier organic anion transporter family member 1B1 (Homo sapiens, UniProt Q9Y6L6); experiment: Inhibition of OATP1B1 (unknown origin)
T3 sequence (Q9Y6L6 whole entry): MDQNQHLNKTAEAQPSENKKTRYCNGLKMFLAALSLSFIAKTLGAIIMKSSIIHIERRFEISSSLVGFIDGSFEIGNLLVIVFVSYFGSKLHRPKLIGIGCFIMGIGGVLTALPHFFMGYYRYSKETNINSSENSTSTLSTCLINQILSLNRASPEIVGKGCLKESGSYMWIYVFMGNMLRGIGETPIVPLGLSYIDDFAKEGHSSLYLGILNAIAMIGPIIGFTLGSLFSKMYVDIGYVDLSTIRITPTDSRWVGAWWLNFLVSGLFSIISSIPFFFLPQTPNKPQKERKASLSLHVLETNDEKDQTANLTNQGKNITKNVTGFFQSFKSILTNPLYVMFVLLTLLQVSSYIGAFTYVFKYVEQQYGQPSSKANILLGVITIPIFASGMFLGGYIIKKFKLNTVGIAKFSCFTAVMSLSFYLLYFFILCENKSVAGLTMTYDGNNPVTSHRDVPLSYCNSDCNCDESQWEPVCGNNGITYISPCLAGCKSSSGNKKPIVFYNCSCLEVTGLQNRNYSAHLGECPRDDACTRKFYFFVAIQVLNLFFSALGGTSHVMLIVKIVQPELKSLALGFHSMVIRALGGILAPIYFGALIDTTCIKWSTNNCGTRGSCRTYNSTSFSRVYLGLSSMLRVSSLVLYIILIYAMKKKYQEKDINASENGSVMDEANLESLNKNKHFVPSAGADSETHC

HepaRG = experiment: Cytotoxicity against human HepaRG cells assessed as leakage of intracellular LDH at 100 uM incubated for 24 hrs by spectrophotometry; assay type: toxicity, cell-based
[36] = AUC in Beagle dog at 1 mg/kg, iv; assay type: ADME, organism-based, Canis lupus familiaris; conditions: in vivo

T1 sequence (P08684 whole entry): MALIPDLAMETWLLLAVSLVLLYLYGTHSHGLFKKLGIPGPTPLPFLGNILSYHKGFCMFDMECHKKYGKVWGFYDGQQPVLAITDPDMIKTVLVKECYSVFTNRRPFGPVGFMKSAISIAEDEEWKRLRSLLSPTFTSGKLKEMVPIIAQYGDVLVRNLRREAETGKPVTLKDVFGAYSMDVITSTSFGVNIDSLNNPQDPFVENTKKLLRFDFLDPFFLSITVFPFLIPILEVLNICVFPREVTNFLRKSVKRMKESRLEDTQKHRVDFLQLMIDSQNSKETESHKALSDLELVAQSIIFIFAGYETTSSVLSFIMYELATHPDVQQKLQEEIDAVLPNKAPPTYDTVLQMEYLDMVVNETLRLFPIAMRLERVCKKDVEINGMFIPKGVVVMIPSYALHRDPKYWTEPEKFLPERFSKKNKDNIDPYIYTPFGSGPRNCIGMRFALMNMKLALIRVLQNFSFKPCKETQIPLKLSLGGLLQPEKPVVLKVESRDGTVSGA

Activity (Cytochrome P450 3A4 [1]): Not Active
Papp A→B [2]: 0.3 ×10⁻⁶ cm/s
microsomal CLint at […], 1 µM [3]: < 10 µL/min/mg
Cmax [4]: 956 ng/mL
half-life [5]: 216 min
half-life [6]: 282 min
Tmax [7]: 48 min
clearance [8]: 110 mL/min/kg
solubility [9]: 100 µg/mL (≈ 0.23 mM)
IC50 (Cytochrome P450 2C9): > 50 µM
Tmax [10]: 18 min
fraction unbound at 1 µM [11]: 0.35
fraction unbound at 1 µM [12]: 0.33
Vd [13]: 11 L/kg
Cmax [14]: 822 ng/mL
bioavailability [15]: 19%
Tmax [16]: 48 min
Cmax [17]: 103 ng/mL
solubility [18]: > 100000 µg/mL
IC50 [19]: 19 µM
Vd [20]: 23 L/kg
bioavailability [21]: 25%
clearance [22]: 38 mL/min/kg
AUC [23]: 443 ng·h/mL
TDI (Cytochrome P450 3A4 [24]): Not Active
AUC [25]: 332 ng·h/mL
IC50 (Cytochrome P450 3A4 [26]): > 50 µM
hepatocyte CLint [27]: 3.6 µL/min/1e6 cells
hepatocyte CLint [28]: < 2 µL/min/1e6 cells
solubility [29]: > 10000 µg/mL
AUC [30]: 2770 ng·h/mL
bioavailability [31]: 95%
microsomal CLint at […], 1 µM [32]: 17 µL/min/mg
IC50 (Cytochrome P450 2D6): 0.15 µM
IC50 [33]: > 50 µM
AUC [34]: 4160 ng·h/mL
IC50 [35]: > 50 µM
AUC [36]: 436 ng·h/mL
SMILES: CC(C)c1ccc([C@](O)(c2cccc(-c3noc(C(C)(C)O)n3)c2)C2(C)CN(C)C2)cc1
Activity (HepaRG): Non-Toxic
